Laboratory results as given in ChEMBL document CHEMBL3085720, “Divergent structure-activity relationships of structurally similar acetylcholinesterase inhibitors” (J Med Chem, 2013).
pIC50, pKd: −log10 of the molar value.

target: T1, Acetylcholinesterase (Mus musculus, UniProt P21836); assay: Inhibition of mouse recombinant AChE using acetylthiocholine iodide as substrate by Ellman's method
T1 sequence (P21836 whole entry): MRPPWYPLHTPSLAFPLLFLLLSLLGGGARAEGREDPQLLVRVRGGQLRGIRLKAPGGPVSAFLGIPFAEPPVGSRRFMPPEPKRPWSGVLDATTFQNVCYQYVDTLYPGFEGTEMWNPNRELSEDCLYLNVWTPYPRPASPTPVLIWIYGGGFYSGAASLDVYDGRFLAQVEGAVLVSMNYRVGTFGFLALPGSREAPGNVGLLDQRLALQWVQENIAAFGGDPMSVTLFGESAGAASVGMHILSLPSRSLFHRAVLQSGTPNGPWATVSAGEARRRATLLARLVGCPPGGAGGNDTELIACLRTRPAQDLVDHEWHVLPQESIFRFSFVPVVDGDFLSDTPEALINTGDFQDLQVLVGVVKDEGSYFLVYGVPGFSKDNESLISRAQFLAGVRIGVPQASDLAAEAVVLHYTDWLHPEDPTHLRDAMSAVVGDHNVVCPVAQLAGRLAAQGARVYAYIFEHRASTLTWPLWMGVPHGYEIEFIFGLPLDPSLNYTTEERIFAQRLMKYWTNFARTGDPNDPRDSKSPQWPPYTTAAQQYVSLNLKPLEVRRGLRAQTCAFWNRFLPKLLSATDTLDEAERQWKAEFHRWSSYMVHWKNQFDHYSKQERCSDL

CCN(CC)CCNS(=O)(=O)c1cccc(C(F)(F)F)c1 and CCN(CC)CCNS(=O)(=O)c1cccc(Cl)c1 are within 0.2 log units of each other in pIC50: 4.66 for the first, 4.74 for the second.

CCN(CC)CCNS(=O)(=O)c1ccc(OC)cc1 and CCN(CC)CCNS(=O)(=O)c1ccc(C)cc1 are within 0.2 log units of each other in pIC50: 3.92 for the first, 3.87 for the second.

CCN(CC)CCNS(=O)(=O)c1ccc([N+](=O)[O-])cc1 and CCN(CC)CCNS(=O)(=O)c1ccc(Cl)cc1 are within 0.2 log units of each other in pIC50: 4.02 for the first, 4.06 for the second.

Going from CCN(CC)CCNS(=O)(=O)c1ccc2ccccc2c1 to CCN(CC)CCNS(=O)(=O)c1cccc2ccccc12, the pIC50 rises from under 3.15 to 4.36.

Compared with CCN(CC)CCNS(=O)(=O)Cc1ccc(C(F)(F)F)cc1, CCN(CC)CCNS(=O)(=O)Cc1ccc(F)cc1 is 0.52 log units lower in pIC50: 4.92 for the first, 4.40 for the second. The first is the more potent here.

Compared with CCN(CC)CCNS(=O)(=O)c1ccc(-c2ccc(Cl)cc2)cc1, CCN(CC)CCNS(=O)(=O)c1ccc(F)cc1 is higher in pIC50: under 3.15 for the first, 4.21 for the second. The second is the more potent here.

Compared with CCN(CC)CCNS(=O)(=O)c1ccc(Cl)cc1F, CCN(CC)CCNS(=O)(=O)c1ccc(F)c(F)c1 is 0.26 log units higher in pIC50: 4.04 for the first, 4.30 for the second.

CCN(CC)CCNS(=O)(=O)c1ccccc1F and CCN(CC)CCNS(=O)(=O)c1ccccc1 are within 0.2 log units of each other in pIC50: 4.39 for the first, 4.51 for the second.

Compared with CCN(CC)CCNS(=O)(=O)Cc1ccc(Cl)c(Cl)c1, CCN(CC)CCNS(=O)(=O)Cc1ccc(Cl)cc1 is 0.23 log units lower in pIC50: 5.15 for the first, 4.92 for the second. The first is the more potent here.

First: CCN(CC)CCNS(=O)(=O)Cc1ccc(Br)cc1
Second: CCN(CC)CCNS(=O)(=O)Cc1ccccc1
The pIC50 of the first is 1.14 log units higher: 5.00 for the first, 3.86 for the second. The first is the more potent here.

CCN(CC)CCNS(=O)(=O)c1cccc(OC)c1 was tested, and the pIC50 was 5.15.

target: T1, Acetylcholinesterase; assay: Inhibition of wild type mouse AChE expressed in HEK293 cells using ATCh as substrate; type: cell-based

With CC[N+](C)(CC)CCC[n+]1c(-c2ccccc2)c2cc(N)ccc2c2ccc(N)cc21 [PROPIDIUM] the pIC50 was 5.96.

target: T1, Acetylcholinesterase; assay: Binding affinity to mouse AChE by isothermal titration calorimetry

In order of falling pKd:
1. CCN(CC)CCNS(=O)(=O)Cc1ccc(C(F)(F)F)cc1  5.04
2. CCN(CC)CCNS(=O)(=O)Cc1ccc(Cl)cc1  4.95
3. CCN(CC)CCNS(=O)(=O)c1cccc(C(F)(F)F)c1  4.83
4. CCN(CC)CCNS(=O)(=O)c1cccc(Cl)c1  4.35

target: T1, Acetylcholinesterase

Work on C/C=C1\[C@H]2C=C(C)C[C@]1(N)c1ccc(=O)[nH]c1C2 [HUPERZINE A] yielded a pIC50 of 7.09.
